Results on 18 molecules are retold here after ChEMBL document CHEMBL1158343, “Synthesis, antimicrobial and antiviral evaluation of substituted imidazole derivatives” (Eur J Med Chem, 2009).

Values after ≈ are worked out from the molar mass of the structure shown. Bounds are passed on as bounds.

The experiment relates to Vaccinia virus. The experiment can be described thus: Antiviral activity against Vaccinia virus infected in human HEL cells assessed as reduction in virus-induced cytopathogenicity after 3 days. The format is functional, organism-based. Particulars: Orthopoxvirus vaccinia, 72 h.
Turning to `O=C(c1ccccc1Br)n1ccnc1-c1ccccc1[N+](=O)[O-]`, the EC50 is above 100 µg/mL.
Turning to `Nc1nc2c(ncn2COC(CO)CO)c(=O)[nH]1` [GANCICLOVIR], the concentration giving a half-maximal response (EC50) was above 100 µg/mL.
Take `O=C(c1ccc([N+](=O)[O-])cc1)n1ccnc1-c1ccccc1[N+](=O)[O-]`: the EC50 is above 100 µg/mL.
`O=C(c1ccc([N+](=O)[O-])cc1)n1ccnc1-c1ccc(Cl)cc1`: the EC50 stood at 2 µg/mL (≈ 6.1 µM).
In the case of `COc1ccc(-c2nccn2C(=O)c2ccccc2Br)cc1`, the EC50 is above 100 µg/mL.
`O=C(O)c1ccccc1-c1nccn1C(=O)c1ccc([N+](=O)[O-])cc1`: the EC50 was above 100 µg/mL.
Turning to `O=C(c1ccccc1Br)n1ccnc1-c1ccc([N+](=O)[O-])cc1`, the EC50 was above 100 µg/mL.
Under `Nc1ccn(C[C@@H](CO)OCP(=O)(O)O)c(=O)n1.O.O` [CIDOFOVIR] stands 7 µg/mL.
As to `O=c1[nH]c(=O)n([C@H]2C[C@H](O)[C@@H](CO)O2)cc1/C=C/Br` [BRIVUDINE], the EC50 was determined as 5 µg/mL (≈ 15 µM).
As for `O=C(c1ccc([N+](=O)[O-])cc1)n1ccnc1-c1cccc([N+](=O)[O-])c1`, the 50% effective concentration (EC50) is above 100 µg/mL.
Under `NC(=O)c1ncn([C@@H]2O[C@H](CO)[C@@H](O)[C@H]2O)n1` [RIBAVIRIN] stands above 250 µg/mL.
As to `O=C(c1ccccc1Br)n1ccnc1-c1ccccc1Cl`, the EC50 is above 100 µg/mL.
Regarding `O=C(c1ccc([N+](=O)[O-])cc1)n1ccnc1-c1ccccc1Cl`, the EC50 was above 100 µg/mL.
The same measure for `O=C(c1ccccc1Br)n1ccnc1-c1cccc([N+](=O)[O-])c1`: above 100 µg/mL; for `O=C(c1ccc([N+](=O)[O-])cc1)n1ccnc1-c1cccc(Cl)c1`: 45 µg/mL (≈ 137 µM); for `O=C(c1ccc([N+](=O)[O-])cc1)n1ccnc1-c1ccc([N+](=O)[O-])cc1`: 4 µg/mL (≈ 11.8 µM).
For `O=C(c1ccccc1Br)n1ccnc1-c1ccc(Cl)cc1`, the EC50 is above 100 µg/mL.
As for `COc1ccc(-c2nccn2C(=O)c2ccc([N+](=O)[O-])cc2)cc1`, the EC50 was above 100 µg/mL.
